# Laboratory results: ChEMBL document CHEMBL4602628, “Design, synthesis, and enzymatic characterization of quinazoline-based CYP1A2 inhibitors” (Bioorg Med Chem Lett, 2020)
# Molecular target: T1, Cytochrome P450 1A2 (Homo sapiens, UniProt P05177)
# T1 sequence (P05177 whole entry): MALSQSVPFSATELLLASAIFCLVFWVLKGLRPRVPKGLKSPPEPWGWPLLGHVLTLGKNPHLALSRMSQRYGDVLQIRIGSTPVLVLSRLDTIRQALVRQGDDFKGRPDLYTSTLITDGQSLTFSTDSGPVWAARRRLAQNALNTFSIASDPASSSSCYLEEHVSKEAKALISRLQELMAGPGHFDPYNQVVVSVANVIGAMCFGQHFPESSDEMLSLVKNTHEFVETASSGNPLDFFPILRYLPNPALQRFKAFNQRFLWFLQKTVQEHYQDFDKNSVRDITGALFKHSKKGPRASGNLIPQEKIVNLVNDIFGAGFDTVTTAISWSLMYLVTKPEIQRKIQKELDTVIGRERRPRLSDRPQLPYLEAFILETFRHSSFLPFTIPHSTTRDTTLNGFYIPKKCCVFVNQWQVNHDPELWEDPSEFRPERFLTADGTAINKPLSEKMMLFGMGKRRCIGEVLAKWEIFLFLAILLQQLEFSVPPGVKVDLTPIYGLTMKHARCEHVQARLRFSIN
# Experiment: Inhibition of recombinant human CYP1A2 using luciferin-ME as substrate preincubated for 10 mins followed by NADPH addition and measured after 10 to 30 mins by P450-Glo assay
row,Structure (SMILES),IC50 [µM]
1,CN(C)c1ccc(-c2ncc3ccccc3n2)cc1,4.2
2,O=[N+]([O-])c1cccc(-c2ncc3ccccc3n2)c1,1.2
3,c1ccc2nc(-c3ccnc4ccccc34)ncc2c1,0.96
